# Test system: psoriasis
# Assay: Case report: psoriasis in a patient treated with midodrine for hypotension
smiles,measurement,setting,value
COc1ccc(OC)c(C(O)CNC(=O)CN)c1 (centres unmarked) [midodrine],improvement of the patient's psoriasis,"person with moderate psoriasis, midodrine five mg three times a day for three months",≥ 90%
same,psoriasis after discontinuing use of midodrine,"same patient, after discontinued use of midodrine",psoriasis returned

# Source: patent US20090234017A1, “TREATING SKIN DISORDERS” (priority 2005, published 2009)
